{"source": "patent US20240035023A1", "about": "“COMPUTER IMPLEMENTED METHOD FOR E[…] FOR SYNTHESIS OF FL[…]” (Kcat Enzymatic Private Limited, priority 2022, published 2024)", "origin": "cited, not measured here", "target": "fluorinase (Streptantibioticus cattleyicolor, UniProt Q70GK9)"}
{"smiles": "Nc1ncnc2c1ncn2[C@@H]1O[C@H](CSCC[C@H](N)C(=O)O)[C@@H](O)[C@H]1O", "note": "[S-adenosyl-homocysteine]", "values": [{"measurement": "enzyme activity against the substrate", "value": "no activity"}]}
